According to patent publication US7138361B2, “Herbicidal heterocycles” (E. I. du Pont de Nemours and Company, priority 2000, dated 2006):

Experiments:
[1] = test system: barnyardgrass (Echinochloa crus-galli); assay: Test C flooded paddy test; format: in vivo; settings: for Barnyardgrass plant response rating: scale 0 to 100, 0 no effect, 100 complete control
How it was run: (§1)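 2-leaf-stage plants, flooded paddy; treated; greenhouse 12–14 days; compared with controls by eye; rated 0–100 (0 none, 100 complete control).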

[2] = test system: rice (Oryza saliva); assay: Test C flooded paddy test; format: in vivo; settings: for Rice plant response rating: scale 0 to 100, 0 no effect, 100 complete control
How it was run: as §1

[3] = Flooded Paddy, Rate 500 g/ha, scale 0 to 100
[4] = flooded paddy test, Rate 62 g/ha, scale 0 to 100 (0 no effect, 100 complete control)
[5] = flooded paddy test, Rate 125 g/ha, scale 0 to 100 (0 no effect, 100 complete control)
[6] = flooded paddy test, Rate 16 g/ha, visually evaluated after 12 to 14 days, 0 = no effect, 100 = complete control
[7] = flooded paddy test, under head Rate 16 g/ha, (own rate not given), after 12 to 14 days
[8] = Flooded Paddy, Rate 1000 g/ha, scale 0 to 100

| SMILES | Plant response rating, Barnyardgrass [1, 3] | Barnyardgrass plant response rating ([1]; Flooded Paddy, Rate 250 g/ha) | Plant response rating, Barnyardgrass [1, 4] | Plant response rating, Barnyardgrass [1, 5] | Plant response rating, Rice [2, 3] | Rice plant response rating ([2]; Flooded Paddy, Rate 250 g/ha) | Plant response rating, Rice [2, 4] | Plant response rating, Rice [2, 5] | Plant response rating (scale 0 to 100), Barnyardgrass [1, 6] | Plant response rating (scale 0 to 100), Rice [2, 6] | Barnyardgrass plant response rating ([1]; Flooded Paddy, Rate 500 g/ha) | Plant response rating (scale 0 to 100), Barnyardgrass [1, 7] | Rice plant response rating ([2]; Flooded Paddy, Rate 500 g/ha) | Plant response rating (scale 0 to 100), Rice [2, 7] | Plant response rating, Barnyardgrass [1, 8] | Plant response rating, Rice [2, 8] |
| --- | --- | --- | --- | --- | --- | --- | --- | --- | --- | --- | --- | --- | --- | --- | --- | --- |
| CC(C)(C)c1ccn(C2SCN(c3cccc(C(F)(F)F)c3)C2=O)n1 (stereo not drawn) [Compound 1] | 100 | 30 | 20 | 80 | 50 | 0 | 0 | 0 |  |  |  |  |  |  |  |  |
| CC1(C)CCc2cn(C3CCN(c4cccc(C(F)(F)F)c4)C3=O)nc21 (stereo not drawn) [Compound 10] | 80 | 40 | 0 | 0 | 60 | 10 | 0 | 0 | 0 | 0 |  |  |  |  |  |  |
| CC1CCc2cn(C3CCN(c4cccc(C(F)(F)F)c4)C3=O)nc21 (stereo not drawn) [Compound 11] | 80 | 30 | 0 | 20 | 30 | 20 | 0 | 0 |  |  |  |  |  |  |  |  |
| CCC(C)c1ccn(C2OCN(c3cccc(C(F)(F)F)c3)C2=O)n1 (stereo not drawn) [Compound 24] |  | 100 | 100 | 100 |  | 30 | 0 | 20 | 100 | 20 | 100 | 80 | 60 | 20 |  |  |
| O=C1C(n2ccc(C3CC3)n2)SCN1c1cccc(C(F)(F)F)c1 (stereo not drawn) [Compound 26] |  | 80 | 0 | 50 |  | 80 | 0 | 40 |  |  | 100 |  | 80 |  |  |  |
| CCC(CC)c1ccn(C2OCN(c3cccc(OC(F)(F)F)c3)C2=O)n1 (stereo not drawn) [Compound 68] |  | 100 | 90 | 100 |  | 30 | 20 | 30 |  |  | 100 |  | 100 |  |  |  |
| CC1(c2ccn(C3OCN(c4cccc(OC(F)(F)F)c4)C3=O)n2)CC1 (stereo not drawn) [Compound 69] |  | 100 | 30 | 30 |  | 40 | 0 | 20 |  |  | 100 |  | 80 |  |  |  |
| CC(C)(C)c1ccn(C2CCN(c3cccc(C(F)(F)F)c3)C2=O)n1 (stereo not drawn) [Example 3, 3-[3-(1,1-dimethylethyl)-1H-pyrazol-1-yl]-1-[3-(trifluoromethyl)phenyl]-2-pyrrolidinone] | 100 | 100 | 20 | 80 | 60 | 50 | 0 | 0 |  |  |  |  |  |  | 100 | 90 |
